{"source": "patent US20250059183A1", "about": "“PYRIDINE[4,3-D]PYRIMIDINE COMPOUND AS TLR7/8 AGONIST” (SHANGHAI VISONPHARMA CO., LTD., priority 2021, published 2025)", "data": [{"target": "T1, human TLR7 (Homo sapiens, UniProt Q9NYK1)", "T1 construct": "host or cells: HEK-Blue hTLR7 (HEK293-derived reporter cells)", "T1 sequence (Q9NYK1 27-1049)": "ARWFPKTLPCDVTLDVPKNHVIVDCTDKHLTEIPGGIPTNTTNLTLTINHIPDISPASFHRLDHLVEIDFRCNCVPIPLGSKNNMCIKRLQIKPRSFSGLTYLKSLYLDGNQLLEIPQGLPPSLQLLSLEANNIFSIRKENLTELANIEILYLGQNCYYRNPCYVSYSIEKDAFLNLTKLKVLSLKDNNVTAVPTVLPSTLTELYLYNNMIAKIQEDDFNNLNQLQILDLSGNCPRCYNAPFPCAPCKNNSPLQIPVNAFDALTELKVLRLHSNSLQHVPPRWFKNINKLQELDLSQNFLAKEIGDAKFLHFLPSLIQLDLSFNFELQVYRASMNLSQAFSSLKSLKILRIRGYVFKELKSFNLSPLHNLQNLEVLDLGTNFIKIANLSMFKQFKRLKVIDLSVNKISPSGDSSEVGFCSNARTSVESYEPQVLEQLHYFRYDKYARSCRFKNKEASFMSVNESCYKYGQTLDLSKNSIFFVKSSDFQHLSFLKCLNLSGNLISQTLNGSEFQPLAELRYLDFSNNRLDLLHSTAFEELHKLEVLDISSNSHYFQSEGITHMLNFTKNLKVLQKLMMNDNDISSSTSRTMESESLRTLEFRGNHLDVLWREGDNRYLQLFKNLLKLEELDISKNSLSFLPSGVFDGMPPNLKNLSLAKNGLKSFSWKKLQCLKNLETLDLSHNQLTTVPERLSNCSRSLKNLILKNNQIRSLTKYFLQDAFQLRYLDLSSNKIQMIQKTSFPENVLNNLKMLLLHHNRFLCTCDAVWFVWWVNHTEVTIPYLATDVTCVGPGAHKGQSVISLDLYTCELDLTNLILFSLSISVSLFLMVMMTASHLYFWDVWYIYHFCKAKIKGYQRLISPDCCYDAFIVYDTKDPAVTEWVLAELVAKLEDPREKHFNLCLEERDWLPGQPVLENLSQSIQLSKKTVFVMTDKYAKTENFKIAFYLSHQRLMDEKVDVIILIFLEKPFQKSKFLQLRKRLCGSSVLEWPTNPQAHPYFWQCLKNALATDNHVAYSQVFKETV", "assay": "HEK-Blue hTLR7 SEAP reporter gene agonist assay", "type": "cell-based", "details": "HEK-Blue hTLR7 cells, 16 to 22 hours incubation", "method": "(§1) HEK-Blue™ cells that stably express human TLR7 or TLR8 are used to evaluate the agonistic activity of the compounds on TLR7 or TLR8, which is determined by the induction of the expression of SEAP reporter gene under the control of minimum IFN-β promoter fusion to 5×NF-κB and AP-1 binding sites. The assay is conducted as below:\n(§2) HEK-Blue™ hTLR7 (Invivogen, 80,000 cells per well) or HEK-Blue™ hTLR8 (Invivogen, 60,000 cells per well) were added to the 96-well cell culture plate, followed by adding of the test compound. The final concentration of the test compound in the medium ranged from […], and was incubated for 16 to 22 hours. According to the manufacturer's instructions, the HEK-Blue assay reagent Quanti-blue (Invivogen) was used to measure SEAP levels in cell media. Optical density at 650 nm (OD650) was measured by Neo2 multifunction plate reader (Bio-tek). The half effective concentration (EC50) was calculated using GraphPad Prism.", "units": {"EC50": "nM"}, "values": [{"molecule": "CCCCNc1nc(N)nc2ccn(Cc3ccc(C(=O)N4CCN(C)CC4)cc3)c(=O)c12", "note": "[Compound I-63, 2-amino-4-(butylamino)-6-(4-(4-methylpiperazine-1-carbonyl)benzyl)pyrido[4,3-d]pyrimidin-5(6H)-one]", "EC50": 82}, {"molecule": "CCCCNc1nc(N)nc2ccn(Cc3ccc(CN4CCCC4)nc3OC)c(=O)c12", "note": "[Compound I-64, 2-amino-4-(butylamino)-6-((2-methoxy-6-(pyrrolidin-1-ylmethyl)pyridin-3-yl)methyl)pyrido[4,3-d]pyrimidin-5(6H)-one]", "EC50": 67}, {"molecule": "CCCCNc1nc(N)nc2ccn(Cc3ccc(C(=O)N4CCN(C)CC4)cc3OC)c(=O)c12", "note": "[Compound I-73, 2-amino-4-(butylamino)-6-(2-methoxy-4-(4-methylpiperazine-1-carbonyl)benzyl)pyrido[4,3-d]pyrimidin-5(6H1)-one]", "EC50": 41}, {"molecule": "CCCC(CCC)Nc1nc(N)nc2ccn(Cc3ccc(C(=O)N4CCN(C)CC4)cc3)c(=O)c12", "note": "[Compound I-114, 2-amino-4-(heptan-4-ylamino)-6-(4-(4-methylpiperazine-1-carbonyl)benzyl)pyrido[4,3-d]pyrimidin-5(6H)-one]", "EC50": 86}, {"molecule": "CCCC(CCC)Nc1nc(N)nc2ccn(Cc3ccc(C(=O)N4CCN(C)CC4)cc3OC)c(=O)c12", "note": "[Compound I-133, 2-amino-4-(heptan-4-ylamino)-6-(2-methoxy-4-(4-methylpiperazine-1-carbonyl)benzyl)pyrido[4,3-d]pyrimidin-5(6H)-one]", "EC50": 70}, {"molecule": "CCCC(CCC)Nc1nc(N)nc2ccn(Cc3ccc(C(=O)N4CCN(CCO)CC4)cc3OC)c(=O)c12", "note": "[Compound I-136, 2-amino-4-(heptan-4-ylamino)-6-(4-(4-(2-hydroxyethyl)piperazine-1-carbonyl)-2-methoxybenzyl)pyrido[4,3-d]pyrimidin-5(6H)-one]", "EC50": 70}]}, {"target": "T2, human TLR8 (Homo sapiens, UniProt Q9NR97)", "T2 construct": "host or cells: HEK-Blue hTLR8 (HEK293-derived reporter cells)", "T2 sequence (Q9NR97 27-1041)": "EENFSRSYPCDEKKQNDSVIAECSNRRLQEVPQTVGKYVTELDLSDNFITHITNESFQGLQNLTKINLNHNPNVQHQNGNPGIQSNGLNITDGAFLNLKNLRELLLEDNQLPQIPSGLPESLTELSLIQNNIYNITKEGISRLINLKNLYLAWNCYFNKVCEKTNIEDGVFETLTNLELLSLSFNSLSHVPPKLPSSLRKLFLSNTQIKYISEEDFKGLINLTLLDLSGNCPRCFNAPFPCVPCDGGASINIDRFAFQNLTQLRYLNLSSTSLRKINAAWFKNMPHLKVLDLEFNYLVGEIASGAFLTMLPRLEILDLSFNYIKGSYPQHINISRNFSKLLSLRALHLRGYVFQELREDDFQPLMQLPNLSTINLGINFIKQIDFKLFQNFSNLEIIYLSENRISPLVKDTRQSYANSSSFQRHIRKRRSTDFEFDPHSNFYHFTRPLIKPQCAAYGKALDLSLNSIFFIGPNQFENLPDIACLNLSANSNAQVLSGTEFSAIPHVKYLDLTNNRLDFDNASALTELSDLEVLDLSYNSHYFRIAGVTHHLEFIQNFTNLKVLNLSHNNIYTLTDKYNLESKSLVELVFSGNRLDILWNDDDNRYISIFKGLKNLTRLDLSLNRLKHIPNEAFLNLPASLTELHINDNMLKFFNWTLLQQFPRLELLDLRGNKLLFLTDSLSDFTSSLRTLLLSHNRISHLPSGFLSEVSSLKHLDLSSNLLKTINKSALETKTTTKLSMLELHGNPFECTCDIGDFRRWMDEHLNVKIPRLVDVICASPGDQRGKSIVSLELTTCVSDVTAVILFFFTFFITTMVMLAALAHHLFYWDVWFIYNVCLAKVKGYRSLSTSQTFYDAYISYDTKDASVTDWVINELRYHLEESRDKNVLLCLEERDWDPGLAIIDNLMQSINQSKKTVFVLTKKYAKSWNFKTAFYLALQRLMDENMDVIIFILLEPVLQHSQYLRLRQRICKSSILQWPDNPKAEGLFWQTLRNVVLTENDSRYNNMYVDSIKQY", "assay": "HEK-Blue hTLR8 SEAP reporter gene agonist assay", "type": "cell-based", "details": "HEK-Blue hTLR8 cells, 16 to 22 hours incubation", "method": "as §1, §2", "units": {"EC50": "nM"}, "values": [{"molecule": "CCCC(C)Nc1nc(N)nc2ccn(Cc3ccc(CN4CCCC4)cc3)c(=O)c12", "note": "(stereo not shown) [Compound I-12, 2-amino-4-(pentan-2-ylamino)-6-(4-(pyrrolidin-1-ylmethyl)benzyl)pyrido[4,3-d]pyrimidin-5(6H)-one]", "EC50": 97}, {"molecule": "CCCCNc1nc(N)nc2ccn(Cc3ccc(C(=O)N4CC5CC(C4)N5)cc3)c(=O)c12", "note": "[Compound I-19, 6-(4-(3,6-diazabicyclo[3.1.1]heptane-3-carbonyl)benzyl)-2-amino-4-(butylamino)pyri do[4,3-d]pyrimidin-5(6H)-one]", "EC50": 55}, {"molecule": "COCCNc1nc(N)nc2ccn(Cc3ccc(CN4CCCC4)cc3)c(=O)c12", "note": "[Compound I-21, 2-amino-4-((2-methoxyethyl)amino)-6-(4-(pyrrolidin-1-ylmethyl)benzyl)pyrido[4,3-d]pyrimidin-5(6H)-one]", "EC50": 51}, {"molecule": "CCCCNc1nc(N)nc2ccn(Cc3ccc(CN4CCCC4)c(F)c3)c(=O)c12", "note": "[Compound I-27, 2-amino-4-(butylamino)-6-(3-fluoro-4-(pyrrolidin-1-ylmethyl)benzyl)pyrido[4,3-d]pyrimidin-5(6H)-one]", "EC50": 95}, {"molecule": "CCCCNc1nc(N)nc2ccn(Cc3ccc(CNCCO)cc3)c(=O)c12", "note": "[Compound I-34, 2-amino-4-(butylamino)-6-(4-(((2-hydroxyethyl)amino)methyl)benzyl)pyrido[4,3-d]pyrimidin-5(6H)-one]", "EC50": 45}, {"molecule": "CCCCNc1nc(N)nc2ccn(Cc3ccc(CN(CCO)CCO)cc3)c(=O)c12", "note": "[Compound I-50, 2-amino-6-(4-((bis(2-hydroxyethyl)amino)methyl)benzyl)-4-(butylamino)pyrido[4,3-d]pyrimidin-5(6H)-one]", "EC50": 51}, {"molecule": "CCCCNc1nc(N)nc2ccn(Cc3ccc(CN4CCCC4)cn3)c(=O)c12", "note": "[Compound I-128, 2-amino-4-(butylamino)-6-((5-(pyrrolidin-1-ylmethyl)pyridin-2-yl)methyl)pyrido[4,3-d]pyrimidin-5(6H)-one]", "EC50": 66}, {"molecule": "CCCCNc1nc(N)nc2ccn(Cc3cnc(CN4CCCC4)cn3)c(=O)c12", "note": "[Compound I-129, 2-amino-4-(butylamino)-6-((5-(pyrrolidin-1-ylmethyl)pyrazin-2-yl)methyl)pyrido[4,3-d]pyrimidin-5(6H)-one]", "EC50": 77}, {"molecule": "CCC[C@@H](C)Nc1nc(N)nc2ccn(Cc3ccc(CN(CCC)CCO)cc3)c(=O)c12", "note": "[Compound I-140, (R)-2-amino-6-(4-(((2-hydroxyethyl)(propyl)amino)methyl)benzyl)-4-(pentan-2-ylamino)pyrido[4,3-d]pyrimidin-5(6H)-one]", "EC50": 30}, {"molecule": "CCC[C@@H](C)Nc1nc(N)nc2ccn(Cc3ccc(CN4CC5(COC5)C4)nc3OC)c(=O)c12", "note": "[Compound I-188, (R)-6-((6-((2-oxa-6-azaspiro[3.3]heptan-6-yl)methyl)-2-methoxypyridin-3-yl)methyl)-2-amino-4-(pentan-2-ylamino)pyrido[4,3-d]pyrimidin-5(6H)-one]", "EC50": 29}, {"molecule": "CCC[C@@H](CO)Nc1nc(N)nc2ccn(Cc3ccc(CN4CCNCC4)cc3OC)c(=O)c12", "note": "[Compound I-191, (S)-2-amino-4-((1-hydroxypentan-2-yl)amino)-6-(2-methoxy-4-(piperazin-1-ylmethyl)benzyl)pyrido[4,3-d]pyrimidin-5(6H)-one]", "EC50": 18}, {"molecule": "CCC[C@@H](CO)Nc1nc(N)nc2ccn(Cc3ccc(CN4CCN(CCN)CC4)cc3OC)c(=O)c12", "note": "[Compound I-207, (S)-2-amino-6-(4-((4-(2-aminoethyl)piperazin-1-yl)methyl)-2-methoxybenzyl)-4-((1-hydroxypentan-2-yl)amino)pyrido[4,3-d]pyrimidin-5(6H)-one]", "EC50": 44}, {"molecule": "CCC[C@@H](CO)Nc1nc(N)nc2ccn(Cc3ccc(CN(C)CCN)cc3OC)c(=O)c12", "note": "[Compound I-208]", "EC50": 70}, {"molecule": "CCCCCCCCCC(=O)OC[C@H](CCC)Nc1nc(N)nc2ccn(Cc3ccc(CN4CCN(C)CC4)cc3OC)c(=O)c12", "note": "[Compound I-221]", "EC50": 30}, {"molecule": "CCCCCCCCCCCCCCCC(=O)OC[C@H](CCC)Nc1nc(N)nc2ccn(Cc3ccc(CN4CCN(C)CC4)cc3OC)c(=O)c12", "note": "[Compound I-222]", "EC50": 9}, {"molecule": "CCCCOC(=O)OC[C@H](CCC)Nc1nc(N)nc2ccn(Cc3ccc(CN4CCN(C)CC4)cc3OC)c(=O)c12", "note": "[Compound I-226]", "EC50": 73}]}]}
